# Test results as given in patent US10669240B2, “5-substituted indazole-3-carboxamides and preparation and use thereof” (Samumed, LLC, priority 2014, dated 2020).
# Assays:
# Format in all cases: cell-based
# [1] = tested on: Wnt activity (Wnt-responsive SP5 promoter luciferase reporter in SW480 cells); assay: Wnt activity reporter assay: SW480 cells with SP5 promoter-driven firefly luciferase; conditions: Homo sapiens, 24 h after compound addition, read-out: Wnt inhibition
# How it was run: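 SW480 cells (APC-mutant colon line) stably carrying a lentiviral SP5-promoter (eight TCF/LEF sites) firefly luciferase reporter were plated at ~10,000 cells/well. Luminescence was normalized to DMSO-only cells and used for IC50.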
# DYRK1A = DYRK1A (Homo sapiens (Human), UniProt Q13627); assay: DYRK1A activity Tau assay: pSer396 Tau in SH-SY5Y cells by ELISA / western blot; conditions: overnight (16-18 h) exposure
# Source text: In another example, in vitro assays for DYRK1A biological activity may be used, e.g. regulation of microtubule-associated protein tau (MAPT/Tau) phosphorylation in neuronal cell line such as the human SH-SY5Y neuroblastoma cell line. Assays for DYRK1a-regulated level of phosphorylation can include monitoring levels of basal pSer396 Tau, which can be measured, for example, by serial dilutions of a candidate inhibitor composition using a ten micromolar top concentration and detected by ELISA or Western Blotting. An exemplary assay for DYRK-1a-regulated phosphorylation uses the SH-SY5Y cells cultured in a 96 well plate format for a period of time sufficient to stabilize microtubules and Tau phosphorylation, usually at least 2 days, then treated with a 1/3 serial dilution of compounds overnight and lysed. The cell lysate is resolved by SDS PAGE, then transferred to nitrocellulose and probed with an antibody specific for pSer396 Tau.
# In a further example, the activity of a candidate compound can be measured by ELISA by adding the lysate mentioned above onto total Tau-coated plates and detected with a specific pSer396 antibody.
# [2] = tested on: primary human mesenchymal stem cells (hMSCs); assay: Chondrogenesis assay in primary human mesenchymal stem cells, nodule count vs TGF-β3 positive control; conditions: 6 days; for Conc (nM) of Max. activity: 6-point dose-response 2700 nM to 10 nM, dose at which maximum chondrogenesis activity was reached; for Conc (nM) of 100% TGF-β3 activity: concentration required to induce chondrogenesis equivalent to TGF-β3 (10 ng/mL); for Max. Activity as % TGF-β3 activity: relative to TGF-β3 (10 ng/mL) positive control
# Source text: The above synthesized compounds were screened using primary human mesenchymal stem cells (hMSCs) to determine their ability to induce chondrogenesis (process by which cartilage is developed).
# Human Mesenchymal Stem Cell Culture:
# Primary human mesenchymal stem cells (hMSCs) were purchased from Lonza (Walkersville, Md.) and expanded in Mesenchymal Stem Cell Growth Media (Lonza). Cells between passage 3 and 6 were used for the experiments.
# Number of nodules in each well was normalized to the average of 3 DMSO treated wells on the same plate using Excel (Microsoft Inc.). The normalized averages (fold change over DMSO) of 3 replicate wells for each compound concentration were calculated. Due to solubility limitations of some of the compounds, curve fitting was incomplete leading to inaccurate EC50 determinations.
# Using TGF-β3 as a positive control, the concentration of test compounds required to induce equivalent levels of chondrogenesis is reported. In addition, the maximum activity of each compound and the respective dose that each compound reached maximum chondrogenesis activity is reported.
# [3] = tested on: primary human fibroblasts derived from IPF patients (LL29 cells); assay: Inhibition of the fibrotic process: αSMA staining in TGF-β1 treated LL29 fibroblasts; conditions: Fibroblast, 72 h, TGF-β1 10 ng/ml, 3 days, read-out: Inhibition of fibrosis IC50
# Protocol: The above synthesized compounds were screened using primary human fibroblasts (derived from IPF patients) treated with TGF-β1 to determine their ability to inhibit the fibrotic process.
# Each compound was dissolved in DMSO as a 10 mM stock and used to prepare compound source plates. […] LL29 cells were plated at 1,000 cells/well in 50 μl/well serum free F12 medium. […] Wells untreated with TGF-β1 were used as control for normalization and calculating IC50 values. Cells were incubated at 37° C. and 5% CO2 for 3 days. Cells were fixed using 4% formaldehyde (Electron Microscopy Sciences), washed 3 times with PBS followed by blocking and permeabilization using 3% Bovine Serum Albumin (BSA; Sigma) and 0.3% Triton X-100 (Sigma) in PBS. […] The IC50 values are reported.
SMILES,IC50 [1] [nM],EC50 (DYRK1A) [nM],Conc (nM) of Max. activity [2] [nM],Conc (nM) of 100% TGF-β3 activity [2] [nM],Max. Activity as % TGF-β3 activity [2] [%],IC50 [3] [nM]
"CN1CCN(c2ccc(NC(=O)c3n[nH]c4ccc(-c5cncc(NC(=O)c6cc(F)ccc6F)c5)cc34)cn2)CC1 [Compound 48, 5-(5-(2,5-Difluorobenzamido)pyridin-3-yl)-N-(6-(4-methylpiperazin-1-yl)pyridin-3-yl)-1H-indazole-3-carboxamide]",31,2,2700,2700,237,67
"COc1ccc(NC(=O)c2n[nH]c3ccc(-c4cncc(CN5CCCC5)c4)cc23)cn1 [Compound 53, N-(6-Methoxypyridin-3-yl)-5-(5-(pyrrolidin-1-ylmethyl)pyridin-3-yl)-1H-indazole-3-carboxamide]",50,2,2700,,86,231
"COc1ccc(NC(=O)c2n[nH]c3ccc(-c4cncc(CN5CCC(F)(F)C5)c4)cc23)cn1 [Compound 54, 5-(5-((3,3-Difluoropyrrolidin-1-yl)methyl)pyridin-3-yl)-N-(6-methoxypyridin-3-yl)-1H-indazole-3-carboxamide]",5,2,300,,51,51
"CN1CCN(c2ccc(NC(=O)c3n[nH]c4ccc(-c5cncc(CN6CCC(F)(F)C6)c5)cc34)cn2)CC1 [Compound 55, 5-(5-((3,3-Difluoropyrrolidin-1-yl)methyl)pyridin-3-yl)-N-(6-(4-methylpiperazin-1-yl)pyridin-3-yl)-1H-indazole-3-carboxamide]",4,1,100,,69,140
"Cc1cncc(NC(=O)c2n[nH]c3ccc(-c4cncc(CN5CCCCC5)c4)cc23)c1 [Compound 64, N-(5-Methylpyridin-3-yl)-5-(5-(piperidin-1-ylmethyl)pyridin-3-yl)-1H-indazole-3-carboxamide]",59,2,2700,,83,265
"Cc1ccc(NC(=O)c2n[nH]c3ccc(-c4cncc(CN5CCCCC5)c4)cc23)cn1 [Compound 65, N-(6-Methylpyridin-3-yl)-5-(5-(piperidin-1-ylmethyl)pyridin-3-yl)-1H-indazole-3-carboxamide]",57,1,900,900,117,172
"CC(C)Oc1ccc(NC(=O)c2n[nH]c3ccc(-c4cncc(CN5CCCCC5)c4)cc23)cn1 [Compound 67, N-(6-Isopropoxypyridin-3-yl)-5-(5-(piperidin-1-ylmethyl)pyridin-3-yl)-1H-indazole-3-carboxamide]",41,3,2700,,82,251
"CC(C)CC(=O)Nc1ccncc1NC(=O)c1n[nH]c2ccc(-c3cncc(CN4CCCCC4)c3)cc12 [Compound 73, N-(4-(3-Methylbutanamido)pyridin-3-yl)-5-(5-(piperidin-1-ylmethyl)pyridin-3-yl)-1H-indazole-3-carboxamide]",25,57,900,,65,1870
"O=C(Nc1cnccc1NC(=O)C1CC1)c1n[nH]c2ccc(-c3cncc(CN4CCCCC4)c3)cc12 [Compound 74, N-(4-(Cyclopropanecarboxamido)pyridin-3-yl)-5-(5-(piperidin-1-ylmethyl)pyridin-3-yl)-1H-indazole-3-carboxamide]",120,,10,,31,2740
"O=C(Nc1ccnc(C(F)(F)F)c1)c1n[nH]c2ccc(-c3cncc(CN4CCCCC4)c3)cc12 [Compound 80, 5-(5-(Piperidin-1-ylmethyl)pyridin-3-yl)-N-(2-(trifluoromethyl)pyridin-4-yl)-1H-indazole-3-carboxamide]",36,36,900,,20,303
"CC1CCN(Cc2cncc(-c3ccc4[nH]nc(C(=O)Nc5cccnc5)c4c3)c2)CC1 [Compound 82, 5-(5-((4-Methylpiperidin-1-yl)methyl)pyridin-3-yl)-N-(pyridin-3-yl)-1H-indazole-3-carboxamide]",7,2,900,900,109,129
"O=C(Nc1cccnc1)c1n[nH]c2ccc(-c3cncc(CN4CC5CC(C4)O5)c3)cc12 [Compound 84, 5-(5-((6-Oxa-3-azabicyclo[3.1.1]heptan-3-yl)methyl)pyridin-3-yl)-N-(pyridin-3-yl)-1H-indazole-3-carboxamide]",67,,900,900,121,132
"CC(C)Oc1ccc(NC(=O)c2n[nH]c3ccc(-c4cncc(CN5CC6CC(C5)O6)c4)cc23)cn1 [Compound 85, 5-(5-((6-Oxa-3-azabicyclo[3.1.1]heptan-3-yl)methyl)pyridin-3-yl)-N-(6-isopropoxypyridin-3-yl)-1H-indazole-3-carboxamide]",61,4,900,,49,180
"CC(C)NC(=O)c1n[nH]c2ccc(-c3cncc(CN4CCC(F)(F)CC4)c3)cc12 [Compound 132, 5-(5-((4,4-Difluoropiperidin-1-yl)methyl)pyridin-3-yl)-N-isopropyl-1H-indazole-3-carboxamide]",47,6,2700,2700,,237
"C[C@@H]1CN(c2ccc(NC(=O)c3n[nH]c4ccc(-c5cncc(CN6CCCCC6)c5)cc34)cn2)C[C@H](C)O1 [Compound 1141, N-(6-((2S,6R)-2,6-dimethylmorpholino)pyridin-3-yl)-5-(5-(piperidin-1-ylmethyl)pyridin-3-yl)-1H-indazole-3-carboxamide]",3,1,2700,2700,129,468
"O=C(NC1CC1)c1n[nH]c2ccc(-c3cncnc3)cc12 [Compound 1269, N-Cyclopropyl-5-(pyrimidin-5-yl)-1H-indazole-3-carboxamide]",,76,2700,,53,
"CC(C)N1CCC(NC(=O)c2n[nH]c3ccc(-c4cncc(Cl)c4)cc23)CC1 [Compound 1305, 5-(5-Chloropyridin-3-yl)-N-(1-isopropylpiperidin-4-yl)-1H-indazole-3-carboxamide]",,124,2700,2700,121,
"O=C(Nc1ccccn1)c1n[nH]c2cc(F)c(-c3cncc(CN4CCCCC4)c3)cc12 [Compound 1343, 6-Fluoro-5-(5-(piperidin-1-ylmethyl)pyridin-3-yl)-N-(pyridin-2-yl)-1H-indazole-3-carboxamide]",,2,2700,,67,
